In patent US20260109714A1, “PYRIMIDINE-FUSED RING COMPOUND, AND PREPARATION METHOD THEREFOR AND USE THEREOF” (GENFLEET THERAPEUTICS (SHANGHAI) INC., priority 2022, published 2026):

Legend:
[1] = tested on: AGS p-ERK; experiment: Cell assay for p-ERK (HTRF, Advance ERK phospho-T202/Y204 kit); format: cell-based, human; details: AGS cells (KRAS G12D), 3 hrs with compound, inhibition of p-ERK level
Method: AGS was purchased from ATCC, Article No.: CRL-1739; F12K was purchased from Gibco, Article No.: 21127-022; FBS was purchased from Gibco, Article No.: 10099-141C; the trypsin (containing EDTA) was purchased from Gibco, Article No.: 25200-072; DMSO was purchased from VWRAMRESCO, Article No.: 0231-500ML; the 96-well cell culture plate was purchased from Corning, Article No.: 3599; the white-bottom opaque 96-well plate was purchased from Cisbio, Article No.: 66PL96025; Advance ERK phospho-T202/Y204 kit was purchased from Cisbio, Article No.: 64AERPEH; the cell counter was purchased from CHEMOMETEC, model: NC-200; the microplate reader was purchased from PerkinElmer, model: Envison.
AGS, an endogenous human gastric adenocarcinoma cell line with KRAS^G12D mutation, was cultured in F12K+10% FBS medium. On the first day of the experiment, cells in logarithmic growth period were digested with trypsin (containing EDTA), collected and counted, and about 20,000 cells/well were inoculated in a 96-well cell culture plate and cultured overnight in an incubator with 5% CO2. 1000× compound stock solutions with gradient concentrations of 3.16 times were prepared with DMSO, and 200-fold diluted to 5× compound stock solutions with the above culture medium. The 5× compound stock solution was added to each cell culture well on the second day after cell inoculation, to give a final concentration of 1× and DMSO content of 0.1%. DMSO was used as experimental control. After adding the compound, the cells were continuously cultured for 3 hrs. Then, the culture medium in the well was removed, and 50 μl/well of cell lysis buffer (from Advanced ERK phospho-T202/Y204 kit, the same hereinafter) was added, and mixed uniformly. The cells were cultured for 30 min. Then 16 μl of the mixture was transferred to a white-bottom opaque 96-well plate, and 16 μl of the cell lysis buffer was added to an additional well and used as a blank. After that, 4 μl of p-ERK HTRF antibody mixed solution (from Advanced ERK Phos Pho-T202/Y204 Kit) was added to each well. After incubation for 4 hrs, the fluorescence value (RLU) of HTRF was read on a microplate reader. The inhibition rate of the compound on p-ERK level was calculated by the formula IR (%)=(RLU of control−RLU of compound)/(RLU of control−RLU of blank)×100%. The compound concentration and the corresponding inhibition rate on p-ERK level in the cells were fitted by using Prism 8 four-parameter method, and the IC50 value was calculated.

[2] = tested on: AGS human gastric cancer cell line with KRAS G12D mutation; experiment: Cell proliferation inhibition experiment, 3D CellTiter-Glo, AGS; format: cell-based; details: AGS cells, 3D spheroid, 5 days
Description: (§1) AsPC-1 was purchased from ATCC, Article No.: CRL-1682; AGS was purchased from ATCC, Article No.: CRL-1739; RPMI1640 was purchased from Gibco, Article No.: 11875-093 2235123; F12K was purchased from Gibco, Article No.: 21127-022; FBS was purchased from Gibco, Article No.: 10099-141C; the trypsin (containing EDTA) was purchased from Gibco, Article No.: 25200-072; CellTiter Glo-3D was purchased from Progema, Article No.: G9683; the 384-well spheroid plate was purchased from Corning, Article No.: 3830; the white-bottom opaque 384-well plate was purchased from Corning, Article No.: 3570; the cell counter was purchased from CHEMOMETEC, model: NC-200; the microplate reader was purchased from PerkinElmer, model: Envison;
(§2) AsPC-1, an endogenous human pancreatic cancer cell AsPC-1 with KRAS^G12D mutation, was cultured in RPMI-1640 medium containing 10% FBS. AGS, a human gastric cancer cell line with KRAS^G12D mutation, was cultured in F-12K medium containing 10% FBS. Cells in logarithmic growth period were digested with trypsin (containing EDTA), collected and counted. 800 AsPC-1 cells/well or 400 […] were inoculated in a 384-well spheroid plate, and cultured overnight in an incubator with 5% CO2 to establish a 3D cell model. 1000× compound stock solutions with gradient concentrations of 3.16 times were prepared with DMSO, and 100-fold diluted to 10× compound stock solutions with the culture medium. The 10× compound stock solution was added to each cell culture well on the second day after cell inoculation, to give a final concentration of 1× and DMSO content of 0.1%. DMSO was used as the control, and the culture medium was used as the blank. After the compound was added, the cells were cultured for 5 days. 30 μl CellTiter-Glo working solution was added to each well, and mixed uniformly. The cells were incubated for 30 min, and allowed to stand at room temperature for 30 min. 40 μl of the mixture was transferred to a white-bottom opaque 384-well plate, and the luminescence was read on a microplate reader. The inhibition rate on cell proliferation was calculated by a formula: IR (%)=(RLU of control−RLU of compound)/(RLU of control−RLU of blank)×100%. The gradient concentrations of the compound and the corresponding inhibition rates were fitted by using XLFit four-parameter method, and the IC50 value was calculated. […] The results of some exemplary compounds are shown in Table 2 below (—means not tested).

[3] = tested on: AsPC-1 human pancreatic cancer cell with KRAS G12D mutation; experiment: Cell proliferation inhibition experiment, 3D CellTiter-Glo, AsPC-1; format: cell-based; details: AsPC-1 cells, 3D spheroid, 5 days
Description: as §1, §2

`C#Cc1cccc2cccc(-c3nc4c5c(nc(OC[C@@]67CCCN6C[C@H](F)C7)nc5c3F)N3C[C@H]5CC[C@H](N5)[C@H]3C(CC)O4)c12` (stereo partly drawn) [Z387, (5S,5aS,6S,9R)-5-ethyl-2-(8-alkynylnaphthalen-1-yl)-1-fluoro-12-(((2R,7aS)-2-fluorotetrahydro-1H-pyrrolizin-7a(5H)-yl)methoxy)-5a,6,7,8,9,10-hexahydro-5H-4-oxy-3,10a,11,13,14-pentaaza-6,9-methanonaphtho[1,8-ab]heptene] gave an IC50 [1] of 50.2 nM, an IC50 [2] of 73.3 nM and an IC50 [3] of 202 nM.
For `C#Cc1cccc2cccc(-c3nc4c5c(nc(OC[C@@]67CCCN6CCC7=C)nc5c3F)N3C[C@H]5CC[C@H](N5)[C@H]3[C@H](C)O4)c12` (single isomer, unassigned) [Z702], the IC50 [1] was 11.1 nM, the IC50 [2] was 26.8 nM and the IC50 [3] was 51.9 nM.
In the case of `C[C@@H]1Oc2nc(-c3cc(N)cc(Cl)c3C(F)(F)F)c(F)c3nc(OC[C@]45CCCN4CC(F)(F)C5)nc(c23)N2C[C@H]3CC[C@H](N3)[C@@H]12` [Z743, 3-chloro-5-((5S,5aS,6S,9R)-12-(((R)-2,2-difluorotetrahydro-1H-pyrrolizin-7a(5H)-yl)methoxy)-1-fluoro-5-methyl-5a,6,7,8,9,10-hexahydro-5H-4-oxa-3,10a,11,13,14-pentaaza-6,9-methanonaphtho[1,8-ab]hepten-2-yl)-4-(trifluoromethyl) aniline], the IC50 ([1]; Homo sapiens) is reported as 0.84 nM, the IC50 ([2]; Homo sapiens, 120 h) is reported as 1.95 nM and the IC50 ([3]; Homo sapiens, ASPC1, 120 h) is reported as 2.16 nM.
In the case of `C#Cc1cccc2cc(N)cc(-c3nc4c5c(nc(OC[C@]67CCCN6CCC7=C(F)F)nc5c3F)N3C[C@H]5CC[C@H](N5)[C@H]3[C@H](C)O4)c12` [Z959, 4-((5S,5aS,6S,9R)-12-(((R)-1-(difluoromethylene)tetrahydro-1H-pyrrolizin-7a(5H)-yl)methoxy)-1-fluoro-5-methyl-5a,6,7,8,9,10-hexahydro-5H-4-oxa-3,10a,11,13,14-pentaaza-6,9-methanonaphtho[1,8-ab]hepten-2-yl)-5-ethynylnaphthalen-2-amine], the IC50 ([1]; Homo sapiens) is reported as 1.59 nM, the IC50 ([2]; Homo sapiens, 120 h) is reported as 7.27 nM and the IC50 ([3]; Homo sapiens, ASPC1, 120 h) is reported as 7.21 nM.
In the case of `Cc1cc(-c2nc3c4c(nc(OCC5(CN6CCOCC6)CC5)nc4c2F)N2C[C@H]4CC[C@H](N4)C2[C@H](C)O3)c(C)c(N)c1C1CC1` (stereo partly drawn) [Z716], the IC50 ([1]; Homo sapiens) is reported as 81.8 nM, the IC50 ([2]; Homo sapiens, 120 h) is reported as 48.6 nM and the IC50 ([3]; Homo sapiens, ASPC1, 120 h) is reported as 89.2 nM.
`C#Cc1cccc2cc(N)cc(-c3nc4c5c(nc(OCC67CCCN6CCC7=C(F)F)nc5c3F)N3C[C@H]5CC[C@H](N5)[C@H]3[C@H](C)O4)c12` (stereo partly drawn) [Z745, 4-((5S,5aS,6S,9R)-12-((1-(difluoromethylene)tetrahydro-1H-pyrrolizin-7a(5H)-yl)methoxy)-1-fluoro-5-methyl-5a,6,7,8,9,10-hexahydro-5H-4-oxa-3,10a,11,13,14-pentaaza-6,9-methanonaphtho[1,8-ab]hepten-2-yl)-5-ethynylnaphthalen-2-amine] showed an IC50 ([1]; Homo sapiens) of 0.84 nM, an IC50 ([2]; Homo sapiens, 120 h) of 3.95 nM and an IC50 ([3]; Homo sapiens, ASPC1, 120 h) of 4.48 nM.
`C#Cc1cccc2cc(N)c(F)c(-c3nc4c5c(nc(OCC6(CN7CCOCC7)CC6)nc5c3F)N3C[C@H]5CC[C@H](N5)[C@H]3[C@H](C)O4)c12` [Z957, 5-ethynyl-3-fluoro-4-((5S,5aS,6S,9R)-1-fluoro-5-methyl-12-((1-(morpholinemethyl)cyclopropyl)methoxy)-5a,6,7,8,9,10-hexahydro-5H-4-oxa-3,10a,11,13,14-pentaaza-6,9-methanonaphtho[1,8-ab]hepten-2-yl)naphthalen-2-amine] gave an IC50 ([1]; Homo sapiens) of 0.97 nM, an IC50 ([2]; Homo sapiens, 120 h) of 7.61 nM and an IC50 ([3]; Homo sapiens, ASPC1, 120 h) of 6.51 nM.
`C#Cc1c(F)ccc2cccc(-c3nc4c5c(nc(OC[C@@]67CCCN6CCC7=C)nc5c3F)N3C[C@H]5CC[C@H](N5)[C@H]3[C@H](C)O4)c12` [Z638, (5S,5aS,6S,9R)-2-(8-ethynyl-7-fluoronaphthalen-1-yl)-1-fluoro-5-methyl-12-(((S)-1-methylenetetrahydro-1H-pyrrolizin-7a(5H)-yl)methoxy)-5a,6,7,8,9,10-hexahydro-5H-4-oxa-3,10a,11,13,14-pentaaza-6,9-methanonaphtho[1,8-ab]heptene] showed an IC50 [1] of 7.79 nM, an IC50 [2] of 19.7 nM and an IC50 [3] of 32 nM.
For `[2H]C([2H])([2H])[C@@H]1Oc2nc(-c3cc(N)cc4cccc(C#C)c34)c(F)c3nc(OCC4(CN5CC[C@@H](F)C5)CC4)nc(c23)N2C[C@H]3CC[C@H](N3)[C@@H]12` [Z964, 5-ethynyl-4-((5S,5aS,6S,9R)-1-fluoro-12-((1-(((R)-3-fluoropyrrolidin-1-yl)methyl)cyclopropyl)methoxy)-5-(methyl-d3)-5a,6,7,8,9,10-hexahydro-5H-4-oxa-3,10a,11,13,14-pentaaza-6,9-methanonaphtho[1,8-ab]hepten-2-yl)naphthalen-2-amine], the IC50 ([1]; Homo sapiens) was 0.38 nM, the IC50 ([2]; Homo sapiens, 120 h) was 0.51 nM and the IC50 ([3]; Homo sapiens, ASPC1, 120 h) was 1.58 nM.
Compound `C#Cc1cccc2cc(N)cc(-c3nc4c5c(nc(OCC67CCCN6CCC7(F)F)nc5c3F)N3C[C@H]5CC[C@H](N5)[C@H]3[C@H](C)O4)c12` (stereo partly drawn) [Z741, 4-((5S,5aS,6S,9R)-12-((1,1-difluorotetrahydro-1H-pyrrolizin-7a(5H)-yl)methoxy)-1-fluoro-5-methyl-5a,6,7,8,9,10-hexahydro-5H-4-oxa-3,10a,11,13,14-pentaaza-6,9-methanonaphtho[1,8-ab]hepten-2-yl)-5-ethynylnaphthalen-2-amine] has an IC50 ([1]; Homo sapiens) of 4.06 nM, an IC50 ([2]; Homo sapiens, 120 h) of 19.2 nM and an IC50 ([3]; Homo sapiens, ASPC1, 120 h) of 10.1 nM.
`C#Cc1cccc2cc(N)cc(-c3nc4c5c(nc(OCC67CC(F)(F)CN6CCC7=C)nc5c3F)N3C[C@H]5CC[C@H](N5)[C@H]3[C@H](C)O4)c12` (stereo partly drawn) [Z738] showed an IC50 ([1]; Homo sapiens) of 12.7 nM, an IC50 ([2]; Homo sapiens, 120 h) of 44.2 nM and an IC50 ([3]; Homo sapiens, ASPC1, 120 h) of 29.9 nM.
In the case of `C[C@@H]1Oc2nc(-c3cc(N)cc(Cl)c3C(F)(F)F)cc3nc(OC[C@@]45CCCN4CC(=C(F)F)C5)nc(c23)N2C[C@H]3CC[C@H](N3)[C@@H]12` [Z1085, 3-chloro-5-((5S,5aS,6S,9R)-12-(((S)-2-(difluoromethylene)tetrahydro-1H-pyrrolizin-7a(5H)-yl)methoxy)-5-methyl-5a,6,7,8,9,10-hexahydro-5H-4-oxa-3,10a,11,13,14-pentaaza-6,9-methanonaphtho[1,8-ab]hepten-2-yl)-4-(trifluoromethyl) aniline], the IC50 ([1]; Homo sapiens) is reported as 0.78 nM, the IC50 ([2]; Homo sapiens, 120 h) is reported as 0.88 nM and the IC50 ([3]; Homo sapiens, ASPC1, 120 h) is reported as 3.04 nM.
`C#Cc1c(F)ccc2cccc(-c3nc4c5c(nc(OC[C@]67CCCN6CC=C7C)nc5c3F)N3C[C@H]5CC[C@H](N5)[C@H]3[C@H](C)O4)c12` [Z749] gave an IC50 ([1]; Homo sapiens) of 1.91 nM, an IC50 ([2]; Homo sapiens, 120 h) of 7.13 nM and an IC50 ([3]; Homo sapiens, ASPC1, 120 h) of 11.5 nM.
